Data taken from patent US20260216176A1, “USE OF PCLX-001 OR PCLX-002 AS A RADIOSENSITIZER” (ACYLEX PHARMACEUTICALS INC., priority 2023, published 2026).
“And” between values parts separate entries of the source, which are not always exact repeats. Identical values can stand only once. Like-named read-outs stand apart in the source and are kept apart here.

Key:
[1] = system: U251 glioblastoma cell line; assay: Alamar Blue cell viability assay of radiosensitization (PCLX-001 pre-treatment plus radiation); type: cell-based, human
Method: Cancer cell lines of human origin were cultivated in the suitable culture medium enriched with 10% fetal bovine serum (FBS) and a 1% mixture of penicillin-streptomycin. These were incubated at a temperature of 37° C. in a 5% CO2 humid environment. The cells were sub-cultured upon reaching a confluence of 80% with the aid of 0.25% trypsin-EDTA [Freshney, R. I., 2010. Culture of animal cells: a manual of basic technique and specialized applications. John Wiley & Sons].
PCLX-001 was prepared at several concentrations for use as a radiosensitizing drug (serial dilutions from 1000 nM, including control 0 nM) in culture media. The cancer cells cultures were then treated with the aforementioned PCLX-001 concentrations and left for 24 h, 48 h, 72 h, and 96 h to allow for maximum pharmacodynamic effect. The cells were then plated into 96-well plates at 5000 cells per well and left to attach overnight while continuing to incubate in the drug/media cocktail.
Upon completion of the PCLX-001 incubation period, a single radiation dose was administered to the cells using a preclinical irradiator. The quantity of radiation was decided based on the results from prior optimization tests [Hall, E. J., Giaccia, A. J., 2012. Radiobiology for the radiologist. Lippincott Williams & Wilkins.]. The radiation doses included 0, 2, and 4 Gy, which corresponds to the most common clinical radiation dose fractions used.
72 hours post-radiation, an Alamar Blue Assay was conducted to determine cell viability. Alamar Blue dye was added to the media (10% v/v) and the plates were incubated at 37° C. for 4 hours. Using a fluorescence plate reader, fluorescence was measured at excitation/emission wavelengths of 560/590 nm. To quantify cell viability, the results were normalized to the data from untreated controls [Ahmed, S. A., et al., 1994].
The data were shown as mean±standard deviation (SD) gathered from three or more independent tests. A one-way ANOVA followed by a post hoc Tukey test was used for statistical analyses to find significant disparities between treatment groups. […]

[2] = Plasma, brain and CSF pharmacokinetics and brain tissue accumulation in mice (LC-MS/MS); type: in vivo, male C57BL/6 mice; settings: for Cmax: read-out: C0/Cmax; for half-life: read-out: T½ (converted)
[3] = male, C57BL/6, mouse, oral gavage 5 mg/kg, Brain
[4] = male, C57BL/6, mouse, oral gavage 5 mg/kg, CSF
[5] = male, C57BL/6, mouse, oral gavage 5 mg/kg, Plasma

## Cc1c(N[S+](=O)(O)c2c(Cl)cc(-c3ccnc(N4CCNCC4)c3)cc2Cl)c(CC(C)C)nn1C [PCLX-001]
[1]; U251, below 25 nM
  dose-enhancement factor: below 1.2
[1]; above 150 nM
  toxicity of the drug itself versus radiotherapy effect: toxicity of the drug itself exceeds the effect of typical radiotherapy dose-per-fraction's effect
[1]; cancer cell line tested (human glioblastoma)
  increase of radiotherapy's effectiveness: about 80%
[2]; 5 mg/kg oral, time point 0.00 h, individual animals
  Plasma Conc.: 0 µM
[2]; 5 mg/kg oral, time point 0.00 h, individual animals, read-out: Brain Conc.
  concentration at 8 h: 0.00 nM
[2]; 5 mg/kg oral, time point 0.00 h, individual animals, read-out: CSF Conc.
  concentration at 24 h: 0.00 nM
[2]; 5 mg/kg oral, time point 0.25 h, individual animals
  Plasma Conc.: 6.76256 µM and 8.5704 µM
[2]; 5 mg/kg oral, time point 0.25 h, individual animals, read-out: Brain Conc.
  concentration at 8 h: 73.74 nM and 86.13 nM
[2]; 5 mg/kg oral, time point 0.25 h, individual animals, read-out: CSF Conc.
  concentration at 24 h: 11.50 nM and 3.78 nM and 7.47 nM
[2]; 5 mg/kg oral, time point 0.50 h, individual animals
  Plasma Conc.: 8.29421 µM and 6.59189 µM
[2]; 5 mg/kg oral, time point 0.50 h, individual animals, read-out: Brain Conc.
  concentration at 8 h: 122.31 nM and 138.42 nM
[2]; 5 mg/kg oral, time point 0.50 h, individual animals, read-out: CSF Conc.
  concentration at 24 h: 4.19 nM and 2.89 nM
[2]; 5 mg/kg oral, time point 1.00 h, individual animals
  Plasma Conc.: 9.05165 µM and 8.88332 µM
[2]; 5 mg/kg oral, time point 1.00 h, individual animals, read-out: Brain Conc.
  concentration at 8 h: 54.48 nM and 64.47 nM
[2]; 5 mg/kg oral, time point 1.00 h, individual animals, read-out: CSF Conc.
  concentration at 24 h: 2.72 nM and 8.67 nM and 3.50 nM
[2]; 5 mg/kg oral, time point 2.00 h, individual animals
  Plasma Conc.: 5.72405 µM and 5.65943 µM
[2]; 5 mg/kg oral, time point 2.00 h, individual animals, read-out: Brain Conc.
  concentration at 8 h: 185.79 nM and 81.69 nM and 204.51 nM
[2]; 5 mg/kg oral, time point 2.00 h, individual animals, read-out: CSF Conc.
  concentration at 24 h: 7.26 nM and 15.58 nM and 16.86 nM
[2]; 5 mg/kg oral, time point 4.00 h, individual animals
  Plasma Conc.: 13.97597 µM and 6.23447 µM and 11.66707 µM
[2]; 5 mg/kg oral, time point 4.00 h, individual animals, read-out: Brain Conc.
  concentration at 8 h: 243.03 nM and 114.75 nM and 171.09 nM
[2]; 5 mg/kg oral, time point 4.00 h, individual animals, read-out: CSF Conc.
  concentration at 24 h: 15.26 nM and 6.67 nM and 87.98 nM
[2]; 5 mg/kg oral, time point 8.00 h, individual animals
  Plasma Conc.: 2.82168 µM and 6.57392 µM and 6.83235 µM
[2]; 5 mg/kg oral, time point 8.00 h, individual animals, read-out: Brain Conc.
  concentration at 8 h: 135.06 nM and 148.56 nM
[2]; 5 mg/kg oral, time point 8.00 h, individual animals, read-out: CSF Conc.
  concentration at 24 h: 30.28 nM and 5.97 nM and 7.19 nM
[2]; 5 mg/kg oral, time point 24.00 h, individual animals
  Plasma Conc.: 0.00638 µM and 0.0041 µM
[2]; 5 mg/kg oral, time point 24.00 h, individual animals, read-out: Brain Conc.
  concentration at 8 h: 0.00 nM and 8.13 nM and 12.81 nM
[2]; 5 mg/kg oral, time point 24.00 h, individual animals, read-out: CSF Conc.
  concentration at 24 h: 0.00 nM
[2]; after oral administration
  time of peak brain drug concentrations: approximately 4 h
[2]; male, C57BL/6, mouse, CSF, oral, 5 mg/kg, 5 mg/kg oral, time point 0.50 h, individual animals, read-out: CSF Conc.
  concentration at 0.5 h: 3.44 nM
[2]; male, C57BL/6, mouse, CSF, oral, 5 mg/kg, 5 mg/kg oral, time point 24.00 h, individual animals, read-out: CSF Conc.
  concentration at 24 h: 0 nM
[2]; male, C57BL/6, mouse, brain and CSF, 5 mg/kg oral, time point 0.25 h, read-out: Brain/CSF-Kp
  Kp at 0.25 h: 13
[2]; male, C57BL/6, mouse, brain, oral, 5 mg/kg, 5 mg/kg oral, time point 0.25 h, individual animals, read-out: Brain Conc.
  concentration at 0.25 h: 0.135 µM
[2]; male, C57BL/6, mouse, brain, oral, 5 mg/kg, 5 mg/kg oral, time point 0.25 h, read-out: Mean Brain Conc.
  concentration at 0.25 h: 0.0983 µM
[2]; male, C57BL/6, mouse, brain, oral, 5 mg/kg, 5 mg/kg oral, time point 0.50 h, individual animals, read-out: Brain Conc.
  concentration at 0.5 h: 108 nM
[2]; male, C57BL/6, mouse, brain, oral, 5 mg/kg, 5 mg/kg oral, time point 0.50 h, read-out: Mean Brain Conc.
  concentration at 0.5 h: 123 nM
[2]; male, C57BL/6, mouse, brain, oral, 5 mg/kg, 5 mg/kg oral, time point 1.00 h, individual animals, read-out: Brain Conc.
  concentration at 1 h: 0.0755 µM
[2]; male, C57BL/6, mouse, brain, oral, 5 mg/kg, 5 mg/kg oral, time point 1.00 h, read-out: Mean Brain Conc.
  concentration at 1 h: 0.0648 µM
[2]; male, C57BL/6, mouse, brain, oral, 5 mg/kg, 5 mg/kg oral, time point 2.00 h, read-out: Mean Brain Conc.
  concentration at 2 h: 0.157 µM
[2]; male, C57BL/6, mouse, brain, oral, 5 mg/kg, 5 mg/kg oral, time point 4.00 h, read-out: Mean Brain Conc.
  concentration at 4 h: 0.176 µM
[2]; male, C57BL/6, mouse, brain, oral, 5 mg/kg, 5 mg/kg oral, time point 8.00 h, individual animals, read-out: Brain Conc.
  concentration at 8 h: 79.3 nM
[2]; male, C57BL/6, mouse, brain, oral, 5 mg/kg, 5 mg/kg oral, time point 8.00 h, read-out: Mean Brain Conc.
  concentration at 8 h: 121 nM
[2]; male, C57BL/6, mouse, brain, oral, 5 mg/kg, 5 mg/kg oral, time point 24.00 h, read-out: Mean Brain Conc.
  concentration at 24 h: 6.98 nM
[2]; male, C57BL/6, mouse, brain/CSF, 5 mg/kg oral, time point 0.50 h, read-out: Brain/CSF-Kp
  Kp at 0.5 h: 35
[2]; male, C57BL/6, mouse, brain/CSF, 5 mg/kg oral, time point 1.00 h, read-out: Brain/CSF-Kp
  Kp at 1 h: 13.1
[2]; male, C57BL/6, mouse, brain/CSF, 5 mg/kg oral, time point 2.00 h, read-out: Brain/CSF-Kp
  Kp at 2 h: 11.9
[2]; male, C57BL/6, mouse, brain/CSF, 5 mg/kg oral, time point 4.00 h, read-out: Brain/CSF-Kp
  Kp at 4 h: 4.81
[2]; male, C57BL/6, mouse, brain/CSF, 5 mg/kg oral, time point 8.00 h, read-out: Brain/CSF-Kp
  Kp at 8 h: 8.35
[2]; male, C57BL/6, mouse, brain/plasma, 5 mg/kg oral, time point 0.25 h, read-out: B/P-Kp (brain to plasma ratio)
  Kp at 0.25 h: 0.01
[2]; male, C57BL/6, mouse, brain/plasma, 5 mg/kg oral, time point 0.50 h, read-out: B/P-Kp (brain to plasma ratio)
  Kp at 0.5 h: 0.02
[2]; male, C57BL/6, mouse, brain/plasma, 5 mg/kg oral, time point 1.00 h, read-out: B/P-Kp (brain to plasma ratio)
  Kp at 1 h: 0.01
[2]; male, C57BL/6, mouse, brain/plasma, 5 mg/kg oral, time point 2.00 h, read-out: B/P-Kp (brain to plasma ratio)
  Kp at 2 h: 0.02
[2]; male, C57BL/6, mouse, brain/plasma, 5 mg/kg oral, time point 4.00 h, read-out: B/P-Kp (brain to plasma ratio)
  Kp at 4 h: 0.02
[2]; male, C57BL/6, mouse, brain/plasma, 5 mg/kg oral, time point 8.00 h, read-out: B/P-Kp (brain to plasma ratio)
  Kp at 8 h: 0.02
[2]; male, C57BL/6, mouse, brain/plasma, 5 mg/kg oral, time point 24.00 h, read-out: B/P-Kp (brain to plasma ratio)
  Kp at 24 h: 1.24
[2]; male, C57BL/6, mouse, plasma, oral, 5 mg/kg, 5 mg/kg oral, time point 0.25 h, individual animals, read-out: Plasma Conc.
  concentration at 0.25 h: 9.59 µM
[2]; male, C57BL/6, mouse, plasma, oral, 5 mg/kg, 5 mg/kg oral, time point 0.25 h, read-out: Mean Plasma Conc.
  concentration at 0.25 h: 8.31 µM
[2]; male, C57BL/6, mouse, plasma, oral, 5 mg/kg, 5 mg/kg oral, time point 0.50 h, individual animals, read-out: Plasma Conc.
  concentration at 0.5 h: 4650 nM
[2]; male, C57BL/6, mouse, plasma, oral, 5 mg/kg, 5 mg/kg oral, time point 0.50 h, read-out: Mean Plasma Conc.
  concentration at 0.5 h: 6510 nM
[2]; male, C57BL/6, mouse, plasma, oral, 5 mg/kg, 5 mg/kg oral, time point 1.00 h, individual animals, read-out: Plasma Conc.
  concentration at 1 h: 7.24 µM
[2]; male, C57BL/6, mouse, plasma, oral, 5 mg/kg, 5 mg/kg oral, time point 1.00 h, read-out: Mean Plasma Conc.
  concentration at 1 h: 8.39 µM
[2]; male, C57BL/6, mouse, plasma, oral, 5 mg/kg, 5 mg/kg oral, time point 2.00 h, individual animals, read-out: Plasma Conc.
  concentration at 2 h: 9.73 µM
[2]; male, C57BL/6, mouse, plasma, oral, 5 mg/kg, 5 mg/kg oral, time point 2.00 h, read-out: Mean Plasma Conc.
  concentration at 2 h: 7.04 µM
[2]; male, C57BL/6, mouse, plasma, oral, 5 mg/kg, 5 mg/kg oral, time point 4.00 h, read-out: Mean Plasma Conc.
  concentration at 4 h: 10.6 µM
[2]; male, C57BL/6, mouse, plasma, oral, 5 mg/kg, 5 mg/kg oral, time point 8.00 h, read-out: Mean Plasma Conc.
  concentration at 8 h: 5410 nM
[2]; male, C57BL/6, mouse, plasma, oral, 5 mg/kg, 5 mg/kg oral, time point 24.00 h, individual animals, read-out: Plasma Conc.
  concentration at 24 h: 6.39 nM
[2]; male, C57BL/6, mouse, plasma, oral, 5 mg/kg, 5 mg/kg oral, time point 24.00 h, read-out: Mean Plasma Conc.
  concentration at 24 h: 5.63 nM
[2]; [3]
  AUC(0-t): 2.15 µM·h
  Tmax: 4 h
  Cmax: 176 nM
  half-life: 250 min
[2]; male, C57BL/6, mouse, oral gavage 5 mg/kg, Brain, read-out: T/P ratio (Tissue to plasma AUClast ratio)
  Kp: 0.02
[2]; [4]
  AUC(0-t): 0.166 µM·h
  Tmax: 4 h
  Cmax: 36.6 nM
[2]; [5]
  AUC(0-t): 108 µM·h
  Tmax: 4 h
  bioavailability: 97%
  Cmax: 10600 nM
  half-life: 106 min
